Results reported in ChEMBL document CHEMBL1201862, “PubChem BioAssay data set” (2004).
Values belong to the molecule of their own block, whether it stands above or below them. Calls of active or inactive are those of the source.

Assays:
[1] = molecular target: T1, Nucleotide-binding oligomerization domain-containing protein 2 (Homo sapiens, UniProt Q9HC29); experiment: PubChem AID 2334; assay type: functional
HEK293 [2] = experiment: cells; assay type: functional, cell-based; details: Homo sapiens
HEK293 [3] = experiment: NOD2 signaling inhibitors in MDP-stimulated cells, cell-based, uHTS, luminescence (AID 2001); assay type: functional; details: Homo sapiens
[4] = molecular target: T1, Nucleotide-binding oligomerization domain-containing protein 2; experiment: inhibition of NOD2-driven NF-kB reporter – cell-based, luminescence, uHTS, HEK293 (AID 1566); assay type: functional
[5] = molecular target: T2, Nucleotide-binding oligomerization domain-containing protein 1 (Homo sapiens, UniProt Q9Y239); experiment: blockers of NOD1 pathway activity – revised, SAR follow-up (AID 2333); assay type: functional
T2 sequence (Q9Y239 whole entry): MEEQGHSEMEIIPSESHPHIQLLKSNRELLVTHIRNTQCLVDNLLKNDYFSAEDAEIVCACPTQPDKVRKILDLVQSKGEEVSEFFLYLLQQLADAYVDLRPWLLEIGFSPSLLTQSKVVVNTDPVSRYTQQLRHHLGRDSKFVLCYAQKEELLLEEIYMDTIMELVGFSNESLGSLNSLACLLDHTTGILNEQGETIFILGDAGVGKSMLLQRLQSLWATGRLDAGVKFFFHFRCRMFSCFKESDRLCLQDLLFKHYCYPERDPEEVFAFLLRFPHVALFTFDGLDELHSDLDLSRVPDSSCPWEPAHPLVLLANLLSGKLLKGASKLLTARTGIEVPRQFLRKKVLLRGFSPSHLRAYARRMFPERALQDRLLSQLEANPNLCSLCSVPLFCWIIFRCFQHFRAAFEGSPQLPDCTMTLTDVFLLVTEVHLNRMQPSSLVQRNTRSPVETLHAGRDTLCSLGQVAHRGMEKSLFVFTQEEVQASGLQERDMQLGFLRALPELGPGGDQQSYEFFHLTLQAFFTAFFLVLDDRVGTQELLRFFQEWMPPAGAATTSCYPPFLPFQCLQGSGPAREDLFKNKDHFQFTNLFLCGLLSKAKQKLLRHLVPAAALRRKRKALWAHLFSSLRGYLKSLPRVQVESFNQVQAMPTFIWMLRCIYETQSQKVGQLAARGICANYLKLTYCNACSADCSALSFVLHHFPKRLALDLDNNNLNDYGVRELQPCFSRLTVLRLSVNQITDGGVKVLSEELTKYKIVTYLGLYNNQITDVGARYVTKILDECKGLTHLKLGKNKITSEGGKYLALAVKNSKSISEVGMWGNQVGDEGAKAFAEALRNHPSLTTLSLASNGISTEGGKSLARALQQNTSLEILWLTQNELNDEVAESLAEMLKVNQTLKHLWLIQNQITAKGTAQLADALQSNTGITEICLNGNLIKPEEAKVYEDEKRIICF

[6] = tested on: Streptococcus sp. 'group A'; experiment: Streptococcus pyogenes SK(-)GAS viability under kanamycin – luminescence, BacTiterGlo, confirmation, counter-screen for streptokinase expression inhibitor project, dose response (AID 1900); assay type: functional, organism-based
Tumor necrosis factor = Tumor necrosis factor (Homo sapiens, UniProt P01375); experiment: analog potency on TNFa NF-kB signaling – cell-based, revised, SAR follow-up (AID 2337); assay type: functional
HEK293 [7] = experiment: cells; details: Homo sapiens
HEK293 [8] = experiment: cells; assay type: functional, cell-based; details: Homo sapiens; remark: listed apart in the source
HEK293 [9] = experiment: inhibition of NOD1-driven NF-kB reporter – cell-based, luminescence, uHTS, primary screen (AID 1578); assay type: functional; details: Homo sapiens
Streptococcus = experiment: GAS UMAA2166 growth inhibition – luminescence, BacTiterGlo, counter-screen for streptokinase expression inhibitor project, dose response (AID 1915); assay type: functional, organism-based;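 also: potency for reduction of bacterial viability or growth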
HEK293 [10] = experiment: cells; assay type: functional, cell-based; details: Homo sapiens; remark: listed apart in the source
Large T antigen = Large T antigen (Simian virus 40, UniProt P03070); assay type: functional, Betapolyomavirus macacae;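 also: Confirmatory-stage PubChem screen for compounds that inhibit SV40 T antigen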
[11] = molecular target: T3, Voltage-gated N-type calcium channel alpha-1B subunit/Amyloid beta A4 precursor protein-binding family A member 1 (Homo sapiens, UniProt Q00975+Q02410); assay type: protein assay
[12] = molecular target: T3, Voltage-gated N-type calcium channel alpha-1B subunit/Amyloid beta A4 precursor protein-binding family A member 1; assay type: protein assay; remark: listed apart in the source
[13] = molecular target: Induced myeloid leukemia cell differentiation protein Mcl-1 (Homo sapiens, UniProt Q07820); assay type: functional
[14] = molecular target: T4, Tyrosine-protein phosphatase non-receptor type 7 (Homo sapiens, UniProt P35236); experiment: SAR analysis of chemical inhibitors of HePTP using a Fluorescent assay - Set 2. [Related pubchem assays (depositor defined):AID1059, AID1077, AID1661, AID2085, AID521]; assay type: functional
T4 sequence (P35236 whole entry): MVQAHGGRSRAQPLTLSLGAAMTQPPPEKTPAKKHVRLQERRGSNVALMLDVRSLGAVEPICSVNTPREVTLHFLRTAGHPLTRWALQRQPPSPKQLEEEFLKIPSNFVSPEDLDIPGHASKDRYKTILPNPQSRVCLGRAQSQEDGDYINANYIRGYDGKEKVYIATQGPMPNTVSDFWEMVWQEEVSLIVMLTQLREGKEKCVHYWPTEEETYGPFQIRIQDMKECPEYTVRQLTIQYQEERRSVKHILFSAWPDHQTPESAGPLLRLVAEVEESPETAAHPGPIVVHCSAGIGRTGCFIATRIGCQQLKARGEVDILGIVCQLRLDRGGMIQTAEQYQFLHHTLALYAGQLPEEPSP

[15] = molecular target: Dual specificity protein phosphatase 3 (Homo sapiens, UniProt P51452); experiment: SAR VHR1 Fluorescent Assay for In Vitro dose response studies Set 2. [Related pubchem assays (depositor defined):AID1654, AID1661, AID1878]; assay type: functional
[16] = molecular target: T5, Eukaryotic translation initiation factor 2-alpha kinase 3 (Homo sapiens, UniProt Q9NZJ5); experiment: Counterscreen assay for PERK inhibitors: Dose response cell-based high throughput screening assay to measure inhibition of PERK at 6 hours. [Related pubchem assays: 1522, 1416 ]; assay type: functional
T5 sequence (Q9NZJ5 whole entry): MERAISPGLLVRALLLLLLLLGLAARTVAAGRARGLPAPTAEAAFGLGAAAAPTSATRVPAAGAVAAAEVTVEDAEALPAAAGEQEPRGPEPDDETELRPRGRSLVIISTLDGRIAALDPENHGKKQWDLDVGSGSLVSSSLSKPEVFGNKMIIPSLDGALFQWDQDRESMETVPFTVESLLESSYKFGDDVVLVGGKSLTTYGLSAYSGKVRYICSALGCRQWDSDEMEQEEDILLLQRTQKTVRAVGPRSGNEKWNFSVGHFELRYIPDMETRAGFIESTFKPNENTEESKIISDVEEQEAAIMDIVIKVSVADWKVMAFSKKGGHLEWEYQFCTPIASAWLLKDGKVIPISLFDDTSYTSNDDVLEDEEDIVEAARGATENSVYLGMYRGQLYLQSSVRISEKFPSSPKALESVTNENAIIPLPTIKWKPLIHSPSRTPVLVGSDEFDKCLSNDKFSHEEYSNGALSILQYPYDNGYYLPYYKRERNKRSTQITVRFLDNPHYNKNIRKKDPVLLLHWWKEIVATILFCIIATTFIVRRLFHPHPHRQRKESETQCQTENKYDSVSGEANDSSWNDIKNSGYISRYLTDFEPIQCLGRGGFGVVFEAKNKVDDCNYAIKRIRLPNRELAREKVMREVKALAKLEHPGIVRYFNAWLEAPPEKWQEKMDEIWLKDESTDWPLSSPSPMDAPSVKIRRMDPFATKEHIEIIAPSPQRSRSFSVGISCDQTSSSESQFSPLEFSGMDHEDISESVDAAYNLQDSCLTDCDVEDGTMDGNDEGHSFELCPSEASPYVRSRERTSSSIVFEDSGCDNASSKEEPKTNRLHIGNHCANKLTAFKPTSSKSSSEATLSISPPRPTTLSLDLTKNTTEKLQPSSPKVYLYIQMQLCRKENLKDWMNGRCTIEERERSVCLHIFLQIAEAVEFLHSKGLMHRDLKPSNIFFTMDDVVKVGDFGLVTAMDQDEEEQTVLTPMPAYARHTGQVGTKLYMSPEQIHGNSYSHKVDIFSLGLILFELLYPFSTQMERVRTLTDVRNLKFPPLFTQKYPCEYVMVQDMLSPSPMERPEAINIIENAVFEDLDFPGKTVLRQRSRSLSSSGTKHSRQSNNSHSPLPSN

[17] = molecular target: T5, Eukaryotic translation initiation factor 2-alpha kinase 3; experiment: Dose response cell-based high-throughput screening assay to measure PERK inhibition. [Related pubchem assays: 1416 ]; assay type: functional
[18] = molecular target: Eukaryotic translation initiation factor 4E (Mus musculus, UniProt P63073); experiment: blockers of eIF4G binding by eIF4E – biochemical, TR-FRET, dose response (AID 855); assay type: functional;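 also: potency for disrupting eIF4E binding to eIF4GI seen as loss of FRET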
[19] = molecular target: T6, Rac GTPase-activating protein 1 (Homo sapiens, UniProt Q9H0H5); experiment: blockers of MgcRacGAP-driven Rac1 GTP hydrolysis – biochemical, ADP Hunter fluorescence, primary and confirmatory, confirmation (AID 624330); assay type: functional
T6 sequence (Q9H0H5 whole entry): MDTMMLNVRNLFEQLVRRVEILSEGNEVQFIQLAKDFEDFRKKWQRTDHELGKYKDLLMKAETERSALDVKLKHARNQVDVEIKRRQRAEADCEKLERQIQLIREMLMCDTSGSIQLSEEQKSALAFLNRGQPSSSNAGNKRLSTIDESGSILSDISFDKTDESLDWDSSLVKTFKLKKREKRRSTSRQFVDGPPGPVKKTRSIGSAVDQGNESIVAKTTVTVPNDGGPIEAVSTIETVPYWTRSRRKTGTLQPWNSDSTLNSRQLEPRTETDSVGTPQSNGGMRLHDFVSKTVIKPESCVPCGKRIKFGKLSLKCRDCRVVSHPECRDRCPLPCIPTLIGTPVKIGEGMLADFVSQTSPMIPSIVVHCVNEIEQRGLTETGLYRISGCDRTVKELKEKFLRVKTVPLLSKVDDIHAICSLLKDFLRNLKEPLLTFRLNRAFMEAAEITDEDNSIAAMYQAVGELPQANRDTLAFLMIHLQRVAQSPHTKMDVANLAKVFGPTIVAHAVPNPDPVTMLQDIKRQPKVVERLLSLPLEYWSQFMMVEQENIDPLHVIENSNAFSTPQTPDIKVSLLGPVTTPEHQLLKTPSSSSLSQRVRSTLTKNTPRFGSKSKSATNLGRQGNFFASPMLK

T1 sequence (Q9HC29 whole entry, the tested form may be a part): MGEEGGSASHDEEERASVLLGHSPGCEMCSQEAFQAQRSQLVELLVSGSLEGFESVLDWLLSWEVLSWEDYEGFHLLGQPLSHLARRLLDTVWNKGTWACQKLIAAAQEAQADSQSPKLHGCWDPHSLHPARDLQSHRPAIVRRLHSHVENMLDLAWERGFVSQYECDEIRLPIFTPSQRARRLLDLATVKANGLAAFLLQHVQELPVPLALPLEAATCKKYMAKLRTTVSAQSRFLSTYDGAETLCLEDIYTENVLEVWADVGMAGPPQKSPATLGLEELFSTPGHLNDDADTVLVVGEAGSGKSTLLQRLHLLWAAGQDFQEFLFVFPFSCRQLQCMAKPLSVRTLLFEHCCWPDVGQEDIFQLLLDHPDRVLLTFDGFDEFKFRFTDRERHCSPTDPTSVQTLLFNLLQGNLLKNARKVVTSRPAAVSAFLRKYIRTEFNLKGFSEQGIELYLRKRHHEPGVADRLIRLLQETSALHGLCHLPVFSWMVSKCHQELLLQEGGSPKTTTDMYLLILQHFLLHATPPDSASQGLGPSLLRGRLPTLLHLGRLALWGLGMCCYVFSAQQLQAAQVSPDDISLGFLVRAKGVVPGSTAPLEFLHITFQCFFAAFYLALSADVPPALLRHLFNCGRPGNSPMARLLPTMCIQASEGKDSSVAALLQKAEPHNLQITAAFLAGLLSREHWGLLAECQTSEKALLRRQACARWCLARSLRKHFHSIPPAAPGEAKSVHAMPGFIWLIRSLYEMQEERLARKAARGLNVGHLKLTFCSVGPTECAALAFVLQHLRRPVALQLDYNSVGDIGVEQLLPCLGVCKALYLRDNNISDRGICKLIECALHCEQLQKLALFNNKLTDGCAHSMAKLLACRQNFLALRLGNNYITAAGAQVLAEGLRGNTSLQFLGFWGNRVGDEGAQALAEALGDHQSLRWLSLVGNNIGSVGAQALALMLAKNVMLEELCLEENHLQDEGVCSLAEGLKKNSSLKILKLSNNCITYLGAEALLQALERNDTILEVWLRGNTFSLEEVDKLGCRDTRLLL
T3 sequence (Q00975 whole entry): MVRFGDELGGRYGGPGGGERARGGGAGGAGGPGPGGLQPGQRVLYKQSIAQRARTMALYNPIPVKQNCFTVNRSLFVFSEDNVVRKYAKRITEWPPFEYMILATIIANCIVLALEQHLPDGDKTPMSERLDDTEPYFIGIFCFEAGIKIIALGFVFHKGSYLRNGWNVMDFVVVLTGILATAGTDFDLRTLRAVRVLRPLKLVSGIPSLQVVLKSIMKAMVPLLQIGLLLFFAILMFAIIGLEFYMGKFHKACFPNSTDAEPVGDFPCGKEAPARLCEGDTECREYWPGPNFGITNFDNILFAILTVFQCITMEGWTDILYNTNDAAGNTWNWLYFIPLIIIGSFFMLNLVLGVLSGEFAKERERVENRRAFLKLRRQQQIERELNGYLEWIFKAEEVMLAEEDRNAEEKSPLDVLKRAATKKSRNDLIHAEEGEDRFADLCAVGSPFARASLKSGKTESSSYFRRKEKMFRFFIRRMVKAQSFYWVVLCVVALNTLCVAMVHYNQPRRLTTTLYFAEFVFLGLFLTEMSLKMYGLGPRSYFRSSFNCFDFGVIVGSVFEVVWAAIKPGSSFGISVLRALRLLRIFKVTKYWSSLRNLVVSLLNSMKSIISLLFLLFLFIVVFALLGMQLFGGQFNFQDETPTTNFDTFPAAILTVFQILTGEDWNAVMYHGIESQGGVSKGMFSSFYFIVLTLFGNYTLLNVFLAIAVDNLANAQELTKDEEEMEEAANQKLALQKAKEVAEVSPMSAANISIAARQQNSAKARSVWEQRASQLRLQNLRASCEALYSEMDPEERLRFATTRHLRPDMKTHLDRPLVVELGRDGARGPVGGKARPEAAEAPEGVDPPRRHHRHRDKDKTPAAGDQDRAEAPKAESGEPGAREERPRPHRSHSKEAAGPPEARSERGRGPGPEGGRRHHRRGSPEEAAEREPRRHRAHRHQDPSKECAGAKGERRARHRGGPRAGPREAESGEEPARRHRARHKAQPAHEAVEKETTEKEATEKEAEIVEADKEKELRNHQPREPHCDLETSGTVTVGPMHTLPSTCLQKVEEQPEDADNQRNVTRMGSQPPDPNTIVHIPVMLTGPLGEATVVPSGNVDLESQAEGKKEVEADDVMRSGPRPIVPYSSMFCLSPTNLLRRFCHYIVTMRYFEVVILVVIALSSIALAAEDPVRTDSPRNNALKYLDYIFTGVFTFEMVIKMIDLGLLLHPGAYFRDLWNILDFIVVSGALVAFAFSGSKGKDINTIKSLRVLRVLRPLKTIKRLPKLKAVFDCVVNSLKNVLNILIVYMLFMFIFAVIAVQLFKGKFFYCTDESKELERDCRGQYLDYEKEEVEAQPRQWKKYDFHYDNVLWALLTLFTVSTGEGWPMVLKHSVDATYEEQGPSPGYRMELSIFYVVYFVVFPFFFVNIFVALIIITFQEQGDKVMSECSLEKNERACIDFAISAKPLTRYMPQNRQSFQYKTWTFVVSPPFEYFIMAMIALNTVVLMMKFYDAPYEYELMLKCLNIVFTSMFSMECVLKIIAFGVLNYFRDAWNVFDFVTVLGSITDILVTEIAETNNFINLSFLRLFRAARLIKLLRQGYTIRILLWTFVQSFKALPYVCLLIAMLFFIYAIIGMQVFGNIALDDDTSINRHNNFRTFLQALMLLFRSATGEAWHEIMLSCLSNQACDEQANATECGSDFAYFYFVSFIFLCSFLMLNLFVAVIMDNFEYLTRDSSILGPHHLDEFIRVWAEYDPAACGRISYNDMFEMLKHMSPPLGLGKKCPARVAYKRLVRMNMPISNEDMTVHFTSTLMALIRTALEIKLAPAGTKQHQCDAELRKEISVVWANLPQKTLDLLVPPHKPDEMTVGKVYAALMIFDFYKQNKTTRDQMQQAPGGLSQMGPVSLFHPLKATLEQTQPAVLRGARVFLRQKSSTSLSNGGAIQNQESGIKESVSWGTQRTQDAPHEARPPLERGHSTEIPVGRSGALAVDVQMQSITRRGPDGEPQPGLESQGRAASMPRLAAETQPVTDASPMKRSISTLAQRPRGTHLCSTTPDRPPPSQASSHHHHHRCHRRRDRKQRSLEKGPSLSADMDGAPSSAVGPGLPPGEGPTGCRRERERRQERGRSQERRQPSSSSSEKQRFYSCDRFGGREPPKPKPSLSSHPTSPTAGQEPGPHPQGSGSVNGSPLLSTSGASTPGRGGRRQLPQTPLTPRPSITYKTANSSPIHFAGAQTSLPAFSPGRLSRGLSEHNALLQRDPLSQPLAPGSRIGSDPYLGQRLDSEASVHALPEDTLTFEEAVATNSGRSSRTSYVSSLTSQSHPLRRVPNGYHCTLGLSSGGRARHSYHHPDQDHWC
T3 sequence (Q02410 whole entry): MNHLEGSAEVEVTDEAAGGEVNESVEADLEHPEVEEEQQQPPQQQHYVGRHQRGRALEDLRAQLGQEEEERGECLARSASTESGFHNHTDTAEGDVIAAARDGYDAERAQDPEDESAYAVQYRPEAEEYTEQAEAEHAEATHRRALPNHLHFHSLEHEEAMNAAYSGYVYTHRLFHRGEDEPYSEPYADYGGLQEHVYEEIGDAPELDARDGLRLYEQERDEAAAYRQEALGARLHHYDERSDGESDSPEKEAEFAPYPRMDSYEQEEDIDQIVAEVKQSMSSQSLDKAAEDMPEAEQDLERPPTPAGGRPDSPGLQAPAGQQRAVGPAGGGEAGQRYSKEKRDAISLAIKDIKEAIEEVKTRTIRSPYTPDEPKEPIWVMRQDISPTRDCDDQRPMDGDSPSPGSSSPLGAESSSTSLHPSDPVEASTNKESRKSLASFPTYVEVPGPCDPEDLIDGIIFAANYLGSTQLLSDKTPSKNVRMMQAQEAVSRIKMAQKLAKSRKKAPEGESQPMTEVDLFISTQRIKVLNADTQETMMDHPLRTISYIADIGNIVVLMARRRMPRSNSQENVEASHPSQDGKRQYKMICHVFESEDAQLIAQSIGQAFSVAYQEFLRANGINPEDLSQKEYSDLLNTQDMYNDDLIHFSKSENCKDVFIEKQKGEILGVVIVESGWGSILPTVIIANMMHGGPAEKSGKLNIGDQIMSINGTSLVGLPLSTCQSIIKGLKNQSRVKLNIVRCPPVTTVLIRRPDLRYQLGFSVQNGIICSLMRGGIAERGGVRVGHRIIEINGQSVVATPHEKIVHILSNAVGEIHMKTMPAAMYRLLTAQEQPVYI
Sequence of Dual specificity protein phosphatase 3 (P51452 whole entry): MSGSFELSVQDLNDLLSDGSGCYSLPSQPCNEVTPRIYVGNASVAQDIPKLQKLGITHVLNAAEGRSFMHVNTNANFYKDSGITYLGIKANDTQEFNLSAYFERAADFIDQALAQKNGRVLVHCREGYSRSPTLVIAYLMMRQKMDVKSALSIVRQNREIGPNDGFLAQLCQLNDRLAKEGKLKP
Sequence of Eukaryotic translation initiation factor 4E (P63073 whole entry): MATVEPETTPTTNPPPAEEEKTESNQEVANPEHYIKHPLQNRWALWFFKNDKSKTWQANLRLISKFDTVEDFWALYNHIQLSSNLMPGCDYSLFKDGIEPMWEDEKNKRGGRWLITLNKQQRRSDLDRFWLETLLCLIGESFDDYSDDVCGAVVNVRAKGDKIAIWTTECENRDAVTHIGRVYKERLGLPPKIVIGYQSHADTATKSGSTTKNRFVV
Sequence of Tumor necrosis factor (P01375 whole entry): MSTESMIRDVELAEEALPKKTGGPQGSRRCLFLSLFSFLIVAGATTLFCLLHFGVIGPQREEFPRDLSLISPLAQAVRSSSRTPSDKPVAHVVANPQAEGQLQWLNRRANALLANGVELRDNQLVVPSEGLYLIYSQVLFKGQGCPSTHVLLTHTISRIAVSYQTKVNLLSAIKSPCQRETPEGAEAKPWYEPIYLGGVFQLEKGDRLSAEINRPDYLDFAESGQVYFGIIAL

SMILES: Cc1cc(NC(=O)c2ccc(C)s2)n(-c2nc3ccccc3[nH]2)n1
IC50 [1]: > 20 µM (inactive)
IC50 (HEK293 [2]): > 20 µM (inactive)
IC50 (HEK293 [3]): 4.57 µM (inactive)
EC50 [4]: > 20 µM (inactive)
IC50 [5]: > 20 µM (inactive)
EC50 [6]: 3.04 µM (active)
IC50 (Tumor necrosis factor): > 20 µM (inactive)
IC50 (HEK293 [7]): > 20 µM (inactive)
IC50 (HEK293 [8]): > 20 µM (inactive)
EC50 (HEK293 [9]): 4.06 µM (active)
EC50 (Streptococcus): 5.48 µM (active)
IC50 (HEK293 [10]): > 20 µM (inactive)

IC50 (Large T antigen): > 100 µM (active)
IC50 [11]: 1.53 µM (active)
IC50 [12]: 46.1 µM (active)
IC50 [13]: 18.2 µM (active)
SMILES: COc1ccc(CC(=O)n2[nH]c(=O)ccc2=O)cc1OC

SMILES: NS(=O)(=O)c1ccc(NC(=S)N2CCN(c3ccc(Cl)c(Cl)c3)CC2)cc1
IC50 [14]: > 100 µM (inactive)
IC50 [15]: > 100 µM (inactive)

EC50 [16]: > 55.7 µM (not active)
EC50 [17]: > 55.7 µM (not active)
SMILES: N#Cc1c(NCCO)ccc([N+](=O)[O-])c1NCCO

SMILES: Cc1ccc(-n2c(N)c(C(=O)N3CCCCC3)sc2=S)cc1
IC50 [14]: > 100 µM (inactive)
IC50 [15]: 76.5 µM (active)

IC50 [18]: > 64 µM (inactive)
IC50 [19]: 81 µM (active)
SMILES: O=C(C1CCN(Cc2cc(Cl)ccc2O)CC1)N1CCN(Cc2ccccc2)CC1

EC50 [16]: > 55.7 µM (not active)
EC50 [17]: > 55.7 µM (not active)
SMILES: CN(C)CC(c1ccccc1)c1ccccc1
